# Paper PMC12018048, “Intranasal kisspeptin administration rapidly stimulates gonadotropin release in humans” (eBioMedicine, 2025)
# Where “and” joins values, the source holds several entries; their conditions need not be identical. Identical values can stand only once.
# Assays:
# [1] = tested on: serum LH, FSH and testosterone; assay: Intranasal kisspeptin-54, reproductive hormone profiles in healthy men; type: in vivo, human; conditions: N = 12; for AUC of the change in serum LH / AUC of the change in serum testosterone / AUC of the change in serum FSH: 4 h sampling; for AUC of the change in serum LH / AUC of the change in serum testosterone / Max increase from baseline in serum testosterone / Maximum increase from baseline in serum FSH / Maximum increase from baseline in serum LH / AUC of the change in serum FSH: mean ± SEM; for Serum FSH over the sampling period, mean difference vs placebo / Serum LH over the sampling period, mean difference vs placebo: 4 h time profile
# Method: (§1) This was a randomised, double-blinded, crossover, placebo-controlled clinical study (Fig. 1, Fig. 2, Fig. 3a). Participants were admitted to the Clinical Research Unit (Imperial College Healthcare NHS Trust) and completed five (in healthy men) or two (in healthy women and patients with HA) study visits. […] Study visits in healthy women were conducted in the follicular phase of the menstrual cycle (i.e., days 2–10 inclusive) to control for changes in reproductive hormones over the course of the cycle and were conducted across two different menstrual cycles to allow washout.
# (§2) All studies commenced at 08:00 to control for circadian hormonal changes. Participants were instructed to abstain from alcohol, caffeine, and sexual activities from 22:00 preceding each study visit. On arrival, an intravenous cannula was inserted into one antecubital fossa, and blood was sampled at timepoints −30, −15, and 0 min, before intranasal administration of kisspeptin-54 or 0.9% saline (placebo). Following participant education (described below), healthy men self-administered the following 5 interventions under supervision in random order via the intranasal route: 3.2, 6.4, 12.8, and 25.6 nmol/kg of kisspeptin-54, or placebo. Healthy women and patients with HA attended for the same protocol comparing 12.8 nmol/kg of kisspeptin-54 and placebo in random order. After administration of kisspeptin-54 or placebo at timepoint 0 min, serum levels of LH, FSH, and testosterone (in men), or oestradiol and progesterone (in women) were measured every 15 min for 4 h. Heart rate, blood pressure, and the presence of adverse symptoms were recorded every 15 min.
# (§3) Kisspeptin-54 or placebo was self-administered using nasal spray devices that delivered a single volume of 100 μL per actuation (SP270+ pump, 3959 actuator, 5 mL SGD U-Save glass bottles provided by Nemera, La Verpillière, France). The kisspeptin-54 nasal spray solution formulations were prepared by reconstituting kisspeptin-54 powder stored in sterile vials on the morning of each study visit to produce a solution containing the target dose according to body weight in 400 μL.
# (§4) Participants were familiarised with the procedure of intranasal application and were provided with written administration instructions ahead of each study visit, as described in.[38] In addition, participants received a 5-min training session using a dummy nasal spray device before starting the study to ensure good technique, which all participants easily understood. Under instruction and supervision from the clinical team, participants primed the nasal sprays then self-administered a total of four sprays of kisspeptin-54 or placebo per visit (i.e., 4 × 100 μL), alternating between nostrils and leaving 60 s between sprays, to allow satisfactory dissipation and avoid solution running out of the nostrils. Nasal sprays containing kisspeptin or placebo were identical in appearance, volume, and administration technique.
# (§5) Blood samples were collected to measure serum reproductive hormone levels at the timepoints depicted in Fig. 1, Fig. 2, Fig. 3a. Serum samples were stored at −20 °C until analysis. Serum LH, FSH, testosterone (in men), and oestradiol and progesterone (in women) were measured using automated chemiluminescent immunoassays (Abbott Diagnostics, Maidenhead, UK: LH catalogue # 2P40-25, FSH catalogue # 7K75-25, testosterone catalogue # 07K7320, oestradiol catalogue # 7K72-25, progesterone catalogue # 7K77-25). Reference ranges: LH in international units per litre (IU/L), 2–12 (men), 2–10 (follicular), 20–60 (mid-cycle), 4–14 (luteal); FSH in IU/L, 1.7–8 (men), 1.5–8.0 (follicular and luteal), 10–50 (mid-cycle); in men: testosterone in nanomoles per litre (nmol/L), 10–30; and in women: oestradiol in picomoles per litre (pmol/L), <300 (early follicular), 400–1500 (mid-cycle), 200–1000 (luteal) and progesterone in nmol/L, <5.0 (follicular), 3.5–67 (luteal). […]
# [2] = tested on: serum LH, FSH, oestradiol and progesterone; assay: Intranasal kisspeptin-54, reproductive hormone profiles in healthy women; type: in vivo, human; conditions: N = 12
# Method: as §1, §2, §3, §4, §5
# [3] = intranasal 3.2 nmol/kg vs placebo
# [4] = intranasal 6.4 nmol/kg vs placebo
# [5] = intranasal 6.4 nmol/kg, two-way ANOVA
# [6] = intranasal 12.8 nmol/kg vs placebo
# [7] = intranasal 12.8 nmol/kg, two-way ANOVA
# [8] = intranasal 25.6 nmol/kg vs placebo
# [9] = follicular phase, intranasal 12.8 nmol/kg, 4 h sampling, mean ± SEM
# [10] = follicular phase, intranasal 12.8 nmol/kg, mean ± SEM
# [11] = intranasal 12.8 nmol/kg vs placebo, paired t-test
# [12] = intranasal 12.8 nmol/kg, two-way ANOVA, 4 h time profile
substance,measurement,setting,value
Kisspeptin-54,"FSH AUC, mean difference vs placebo",[1]; [3],47.2 h·IU/L
same,"FSH maximum increase, mean difference vs placebo",[1]; [3],0.2 IU/L
same,"LH AUC, mean difference vs placebo",[1]; [3],197.6 h·IU/L
same,"LH maximum increase, mean difference vs placebo",[1]; [3],1.1 IU/L
same,"Testosterone AUC, mean difference vs placebo",[1]; [3],457.4 nmol·h/L
same,"Testosterone max increase, mean difference vs placebo",[1]; [3],1.5 nmol/L
same,AUC of the change in serum LH,[1]; intranasal 3.2 nmol/kg,172.2 ± 64.2 h·IU/L
same,AUC of the change in serum testosterone,[1]; intranasal 3.2 nmol/kg,273.6 ± 158.7 nmol·h/L
same,Max increase from baseline in serum testosterone,[1]; intranasal 3.2 nmol/kg,4.0 ± 1.0 nmol/L
same,Maximum increase from baseline in serum FSH,[1]; intranasal 3.2 nmol/kg,0.3 ± 0.1 IU/L
same,Maximum increase from baseline in serum LH,[1]; intranasal 3.2 nmol/kg,2.5 ± 0.3 IU/L
same,"FSH AUC, mean difference vs placebo",[1]; [4],97.6 h·IU/L
same,"FSH maximum increase, mean difference vs placebo",[1]; [4],0.4 IU/L
same,"LH AUC, mean difference vs placebo",[1]; [4],325.5 h·IU/L
same,"LH maximum increase, mean difference vs placebo",[1]; [4],1.7 IU/L
same,"Testosterone AUC, mean difference vs placebo",[1]; [4],329.7 nmol·h/L
same,"Testosterone max increase, mean difference vs placebo",[1]; [4],0.9 nmol/L
same,AUC of the change in serum FSH,[1]; intranasal 6.4 nmol/kg,37.3 ± 16.2 h·IU/L
same,AUC of the change in serum LH,[1]; intranasal 6.4 nmol/kg,300.2 ± 79.2 h·IU/L
same,AUC of the change in serum testosterone,[1]; intranasal 6.4 nmol/kg,145.9 ± 158.5 nmol·h/L
same,Max increase from baseline in serum testosterone,[1]; intranasal 6.4 nmol/kg,3.4 ± 0.8 nmol/L
same,Maximum increase from baseline in serum FSH,[1]; intranasal 6.4 nmol/kg,0.4 ± 0.1 IU/L
same,"Serum FSH over the sampling period, mean difference vs placebo",[1]; [5],0.4 IU/L
same,"Serum LH over the sampling period, mean difference vs placebo",[1]; [5],1.3 IU/L
same,"FSH AUC, mean difference vs placebo",[1]; [6],156.6 h·IU/L
same,"FSH maximum increase, mean difference vs placebo",[1]; [6],0.7 IU/L
same,"LH AUC, mean difference vs placebo",[1]; [6],621.1 h·IU/L
same,"LH maximum increase, mean difference vs placebo",[1]; [6],3.1 IU/L
same,"Testosterone AUC, mean difference vs placebo",[1]; [6],654.3 nmol·h/L
same,"Testosterone max increase, mean difference vs placebo",[1]; [6],2.4 nmol/L
same,AUC of the change in serum FSH,[1]; intranasal 12.8 nmol/kg,96.3 ± 23.2 h·IU/L
same,AUC of the change in serum LH,[1]; intranasal 12.8 nmol/kg,595.7 ± 98.3 h·IU/L
same,AUC of the change in serum testosterone,[1]; intranasal 12.8 nmol/kg,470.4 ± 144.0 nmol·h/L
same,Time of maximal increase in serum testosterone,[1]; intranasal 12.8 nmol/kg,150 min
same,Max increase from baseline in serum testosterone,[1]; intranasal 12.8 nmol/kg,4.9 ± 0.7 nmol/L
same,Maximum increase from baseline in serum FSH,[1]; intranasal 12.8 nmol/kg,0.7 ± 0.2 IU/L
same,Maximum increase from baseline in serum LH,[1]; intranasal 12.8 nmol/kg,4.45 IU/L and 4.4 ± 0.6 IU/L
same,"Serum FSH over the sampling period, mean difference vs placebo",[1]; [7],0.6 IU/L
same,"Serum LH over the sampling period, mean difference vs placebo",[1]; [7],2.5 IU/L
same,"Serum testosterone, mean difference vs placebo at peak levels from 120 min",[1]; [7],1.91 nmol/L
same,"FSH AUC, mean difference vs placebo",[1]; [8],147.6 h·IU/L
same,"FSH maximum increase, mean difference vs placebo",[1]; [8],0.7 IU/L
same,"LH AUC, mean difference vs placebo",[1]; [8],574.4 h·IU/L
same,"LH maximum increase, mean difference vs placebo",[1]; [8],2.9 IU/L
same,"Testosterone AUC, mean difference vs placebo",[1]; [8],630.3 nmol·h/L
same,"Testosterone max increase, mean difference vs placebo",[1]; [8],3.1 nmol/L
same,AUC of the change in serum FSH,[1]; intranasal 25.6 nmol/kg,87.3 ± 66.2 h·IU/L
same,AUC of the change in serum LH,[1]; intranasal 25.6 nmol/kg,549.0 ± 108.6 h·IU/L
same,AUC of the change in serum testosterone,[1]; intranasal 25.6 nmol/kg,446.5 ± 287.4 nmol·h/L
same,Max increase from baseline in serum testosterone,[1]; intranasal 25.6 nmol/kg,5.6 ± 1.6 nmol/L
same,Maximum increase from baseline in serum FSH,[1]; intranasal 25.6 nmol/kg,0.8 ± 0.3 IU/L
same,Maximum increase from baseline in serum LH,[1]; intranasal 25.6 nmol/kg,4.3 ± 0.6 IU/L
same,"Serum LH over the sampling period, mean difference vs placebo","[1]; intranasal 25.6 nmol/kg, two-way ANOVA",2.3 IU/L
same,Time of peak stimulation of serum LH after administration,[1]; intranasal 3.2-25.6 nmol/kg,30 to 45 min
same,AUC of the change in serum FSH,[2]; [9],-36.1 ± 23.4 h·IU/L
same,AUC of the change in serum LH,[2]; [9],96.0 ± 45.8 h·IU/L
same,Maximum increase from baseline in serum FSH,[2]; [10],0.3 ± 0.1 IU/L
same,Maximum increase from baseline in serum LH,[2]; [10],1.4 ± 0.3 IU/L
same,"FSH AUC, mean difference vs placebo",[2]; [11],76.4 h·IU/L
same,"FSH maximum increase, mean difference vs placebo",[2]; [11],0.4 IU/L
same,"LH AUC, mean difference vs placebo",[2]; [11],179.8 h·IU/L
same,"LH maximum increase, mean difference vs placebo",[2]; [11],1.0 IU/L
same,Effect on circulating oestradiol and progesterone levels,"[2]; intranasal 12.8 nmol/kg, acute 4-h time-course",no significant effects
same,"Serum FSH over time, mean difference vs placebo",[2]; [12],0.3 IU/L
same,"Serum LH over time, mean difference vs placebo",[2]; [12],0.7 IU/L
